Earlier results in patent US20050227949A1, “Compositions and methods for treatment of viral and bacterial infections” (priority 2004, published 2005).

How the values were obtained:
herpes simplex = conditions: previously reported treatment of herpes simplex infections
HIV = conditions: previously reported
suppressor T-cells = conditions: further reported uses; probably due to blockade of selected suppressor T-cells

Compound: CN/C(=N/CCSCc1nc[nH]c1C)NC#N [cimetidine]
- outbreak and duration of herpes zoster (herpes simplex): effectively reduced outbreak and duration of herpes zoster
- treatment result in HIV patients (HIV): less encouraging results
- immune functions (suppressor T-cells): improvements of various immune functions
